Measurements reported in patent US11174251B2, “Compositions and methods for inhibition of the JAK pathway” (Rigel Pharmaceuticals, Inc., priority 2010, dated 2021).
Structures can show the parent of a compound that is named as a salt.

These compounds were tested against T1, JAK3 (Homo sapiens, UniProt P52333) (assay: Assay for CD23 expression on Ramos B-cells stimulated by IL-4 (Table IV: ability to inhibit JAK3 activity)). Conditions: tested under conditions described in Example 3 (so in the source).
T1 construct: The Ramos B-cell line was acquired from ATCC (ATCC Catalog No. CRL-1596); host or cells: Ramos B-cell line (human)
T1 sequence (P52333 1-1124): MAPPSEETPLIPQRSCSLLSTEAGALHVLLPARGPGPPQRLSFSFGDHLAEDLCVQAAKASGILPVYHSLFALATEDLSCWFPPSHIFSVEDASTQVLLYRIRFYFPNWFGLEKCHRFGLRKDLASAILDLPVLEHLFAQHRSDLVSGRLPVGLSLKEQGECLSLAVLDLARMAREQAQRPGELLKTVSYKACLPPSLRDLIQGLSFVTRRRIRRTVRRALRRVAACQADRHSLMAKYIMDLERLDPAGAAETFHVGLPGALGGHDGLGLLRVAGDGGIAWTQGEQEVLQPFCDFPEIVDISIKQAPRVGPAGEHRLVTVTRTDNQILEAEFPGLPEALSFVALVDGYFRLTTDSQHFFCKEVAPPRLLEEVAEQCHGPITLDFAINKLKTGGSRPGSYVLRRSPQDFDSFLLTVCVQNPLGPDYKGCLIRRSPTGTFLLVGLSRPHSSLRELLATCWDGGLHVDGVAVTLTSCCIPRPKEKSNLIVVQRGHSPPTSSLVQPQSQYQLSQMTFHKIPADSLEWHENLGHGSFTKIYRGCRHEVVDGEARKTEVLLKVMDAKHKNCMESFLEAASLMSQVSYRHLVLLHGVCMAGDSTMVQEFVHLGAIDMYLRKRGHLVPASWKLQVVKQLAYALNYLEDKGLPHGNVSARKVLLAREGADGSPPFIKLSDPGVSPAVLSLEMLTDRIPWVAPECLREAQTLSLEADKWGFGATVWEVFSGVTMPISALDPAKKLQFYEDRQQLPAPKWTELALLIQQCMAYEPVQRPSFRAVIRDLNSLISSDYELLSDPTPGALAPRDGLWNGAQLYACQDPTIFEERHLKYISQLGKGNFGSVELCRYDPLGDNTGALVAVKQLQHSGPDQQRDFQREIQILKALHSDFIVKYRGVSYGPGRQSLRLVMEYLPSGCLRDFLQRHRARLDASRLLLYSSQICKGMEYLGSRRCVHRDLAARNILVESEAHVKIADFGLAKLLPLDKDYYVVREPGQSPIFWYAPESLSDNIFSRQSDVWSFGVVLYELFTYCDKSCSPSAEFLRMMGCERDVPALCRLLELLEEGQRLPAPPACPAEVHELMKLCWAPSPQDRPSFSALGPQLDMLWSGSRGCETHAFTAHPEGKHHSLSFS
Format: cell-based
Outline: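 Human Ramos B cells in RPMI with 5% serum, pre-incubated 1 h at 37 °C with compound or DMSO, then stimulated with IL-4 (final 50 units/mL) for 20–24 h. Surface CD23 upregulation measured by FACS staining as readout of JAK1/JAK3–Stat-6 signalling.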

IC50, > 10000 nM:
COC(=O)c1cnc(Nc2ccc(F)c(OC)c2F)nc1Nc1ccc2oc(=O)[nH]c2c1 [Compound I-48, 2-(2,4-Difluoro-3-methoxy-phenylamino)-4-(2-oxo-2,3-dihydro-benzooxazol-5-ylamino)-pyrimidine-5-carboxylic acid methyl ester trifluoroacetate salt]
COC(=O)c1cnc(Nc2cc(C)c(F)c(OC)c2)nc1Nc1ccc2oc(=O)[nH]c2c1 [Compound I-58, 2-(4-Fluoro-3-methoxy-5-methyl-phenylamino)-4-(2-oxo-2,3-dihydro-benzooxazol-5-ylamino)-pyrimidine-5-carboxylic acid methyl ester trifluoroacetate salt]

IC50, < 500 nM:
COC(=O)c1cc(Nc2ncc(C)c(Nc3ccc4oc(=O)[nH]c4c3)n2)cc(C)c1F [Compound I-153, N2-(4-fluoro-3-methoxycarbonyl-5-methyl)phenyl-5-methyl-N4-(2-oxo-2,3-dihydro-1,3-benzoxazol-5-yl)-2,4-pyrimidinediamine]
COc1c(F)ccc(Nc2ncc(Cl)c(Nc3ccc4oc(=O)[nH]c4c3)n2)c1F [Compound I-7, 5-(5-chloro-2-(2,4-difluoro-3-methoxyphenylamino)pyrimidin-4-ylamino)benzo[d]oxazol-2(3H)-one trifluoroacetate salt]
O=c1[nH]c2cc(Nc3nc(Nc4cc(F)cc(F)c4)ncc3Cl)ccc2o1 [Compound I-14, 5-(5-chloro-2-(3,5-difluorophenylamino)pyrimidin-4-ylamino)benzo[d]oxazol-2(3H)-one trifluoroacetate salt]
COc1cc(Nc2ncc(C)c(Nc3ccc4oc(=O)[nH]c4c3)n2)cc(F)c1C [Compound I-120, 5-(2-(3-fluoro-5-methoxy-4-methylphenylamino)-5-methylpyrimidin-4-ylamino)benzo[d]oxazol-2(3H)-one trifluoroacetate salt]
C#Cc1cccc(Nc2ncc(C)c(Nc3ccc4oc(=O)[nH]c4c3)n2)c1 [Compound I-31, 5-[2-(3-Ethynyl-phenylamino)-5-methyl-pyrimidin-4-ylamino]-3H-benzooxazol-2-one]
COc1cc(Nc2ncc(F)c(Nc3ccc4oc(=O)[nH]c4c3)n2)cc(Cl)c1OC [Compound I-185, 5-(2-(3-chloro-4,5-dimethoxyphenylamino)-5-fluoropyrimidin-4-ylamino)benzo[d]oxazol-2(3H)-one trifluoroacetate salt]
COc1ccc(Nc2ncc(F)c(Nc3ccc4oc(=O)[nH]c4c3)n2)cc1-c1ccncc1 [Compound I-208, 5-(2-(4-methoxy-3-(pyridin-4-yl)phenylamino)-5-fluoropyrimidin-4-ylamino)benzo[d]oxazol-2(3H)-one formate salt]
Cc1cnc(Nc2ccc(Br)cc2F)nc1Nc1ccc2oc(=O)[nH]c2c1 [Compound I-28, 5-[2-(4-Bromo-2-fluoro-phenylamino)-5-methyl-pyrimidin-4-ylamino]-3H-benzooxazol-2-one]
Cc1cnc(Nc2cc(C)c(C)c(C)c2)nc1Nc1ccc2oc(=O)n(COP(=O)(O)O)c2c1 [Compound I-130, 5-methyl-N4-[3-(phosphonooxy)methyl-2-oxo-2,3-dihydro-1,3-benzoxazol-5-yl]-N2-(3,4,5-trimethyl)phenyl-2,4-pyrimidinediamine arginine salt]
CCOc1cc(Nc2ncc(Cl)c(Nc3ccc4oc(=O)[nH]c4c3)n2)cc(C)c1C [Compound I-104, 5-(5-chloro-2-(3-ethoxy-4,5-dimethylphenylamino)pyrimidin-4-ylamino)benzo[d]oxazol-2(3H)-one ditrifluoroacetate salt]
COc1cc(Nc2ncc(F)c(Nc3ccc4oc(=O)[nH]c4c3)n2)cc(F)c1C [Compound I-121, 5-(5-fluoro-2-(3-fluoro-5-methoxy-4-methylphenylamino)pyrimidin-4-ylamino)benzo[d]oxazol-2(3H)-one trifluoroacetate salt]
CN1C/C=C\Cc2ccc(Nc3ncc(F)c(Nc4ccc5oc(=O)[nH]c5c4)n3)cc2C1=O [II-4, (Z)-5-(5-fluoro-2-(2-methyl-1-oxo-1,2,3,6-tetrahydrobenzo[c]azocin-9-ylamino)pyrimidin-4-ylamino)benzo[d]oxazol-2(3H)-one formate salt]
Cc1cc(Nc2ncc(C)c(Nc3ccc4oc(=O)[nH]c4c3)n2)cc(C)n1 [II-19, N2-(2,6-dimethylpyridin-4-yl)-5-methyl-N4-(2-oxo-2,3-dihydro-1,3-benzoxazol-5-yl)-2,4-pyrimidinediamine]
Cc1cc(C)cc(Nc2ncc(F)c(Nc3cc(F)c4oc(=O)[nH]c4c3)n2)c1 [Compound I-187, 5-(2-(3,5-dimethylphenylamino)-5-fluoropyrimidin-4-ylamino)-7-fluorobenzo[d]oxazol-2(3H)-one trifluoroacetate salt]
[2H]C([2H])([2H])c1c(C)cc(Nc2ncc(C)c(Nc3ccc4oc(=O)[nH]c4c3)n2)cc1C [Compound I-35, 5-[5-Methyl-2-(3,5-dimethyl-4-d3-methyl-phenylamino)-pyrimidin-4-ylamino]-3H-benzooxazol-2-one trifluoroacetate salt]
COc1cc(Nc2ncc(F)c(Nc3cc(F)c4oc(=O)[nH]c4c3)n2)cc(C)c1F [Compound I-191, 5-(2-(4-fluoro-3-methoxy-5-methylphenylamino)-5-fluoropyrimidin-4-ylamino)-7-fluorobenzo[d]oxazol-2(3H)-one trifluoroacetate salt]
NC(=O)c1ccc(Nc2nccc(Nc3ccc4oc(=O)[nH]c4c3)n2)cc1 [Compound I-2, 4-(4-(2-oxo-2,3-dihydrobenzo[d]oxazol-5-ylamino)pyrimidin-2-ylamino)benzamide trifluoroacetate salt]

IC50, 5000 to 10000 nM:
Cc1ccc(Nc2ncc(C)c(Nc3ccc4oc(=O)[nH]c4c3)n2)cc1C(=O)O [Compound I-152, N2-(3-carboxy-4-methyl)phenyl-5-methyl-N4-(2-oxo-2,3-dihydro-1,3-benzoxazol-5-yl)-2,4-pyrimidinediamine]

IC50, 500 to 5000 nM:
COc1cc(Nc2ncc(C)c(Nc3ccc4oc(=O)[nH]c4c3)n2)c(F)cc1C [Compound I-122, 5-(2-(2-fluoro-5-methoxy-4-methylphenylamino)-5-methylpyrimidin-4-ylamino)benzo[d]oxazol-2(3H)-one trifluoroacetate salt]
Cc1cnc(N(C)c2ccccc2)nc1Nc1ccc2oc(=O)[nH]c2c1 [Compound I-26, 5-[5-Methyl-2-(methyl-phenyl-amino)-pyrimidin-4-ylamino]-3H-benzooxazol-2-one]
COc1cc(Nc2ncc(C)c(Nc3ccc4oc(=O)n(COP(=O)(O)O)c4c3)n2)cc(C)c1C [Compound I-115, Disodium (5-(2-(3-methoxy-4,5-dimethylphenylamino)-5-methylpyrimidin-4-ylamino)-2-oxobenzo[d]oxazol-3(2H)-yl)methyl phosphate]
COc1cc(Nc2ncc(F)c(Nc3cc(C)c4oc(=O)[nH]c4c3)n2)cc(C)c1F [Compound I-190, 5-(2-(4-fluoro-3-methoxy-5-methylphenylamino)-5-fluoropyrimidin-4-ylamino)-7-methylbenzo[d]oxazol-2(3H)-one trifluoroacetate salt]
Cc1cnc(Nc2cc(C)c(C)c(C)c2)nc1Nc1cc(CN2CCCC2)c2oc(=O)[nH]c2c1 [Compound I-91, 5-(2-(3,4,5-trimethylphenylamino)-5-methylpyrimidin-4-ylamino)-7-((pyrrolidin-1-yl)methyl)benzo[d]oxazol-2(3H)-one]
Cc1cnc(Nc2cc(C)c(C)c(C)c2)nc1Nc1ccc2oc(=O)n(COP(=O)(O)O)c2c1 [Compound I-136, 5-methyl-N4-[3-(phosphonooxy)methyl-2-oxo-2,3-dihydro-1,3-benzoxazol-5-yl]-N2-(3,4,5-trimethyl)phenyl-2,4-pyrimidinediamine dipotassium salt]
CC(C)c1ccc(Nc2ncc(F)c(Nc3ccc4oc(=O)[nH]c4c3)n2)cc1 [Compound I-200, 5-(2-(4-isopropylphenylamino)-5-fluoropyrimidin-4-ylamino)benzo[d]oxazol-2(3H)-one trifluoroacetate salt]
